# Measured values published in patent publication US20250136570A1 (Tango Therapeutics, Inc., priority 2021, published 2025).
# Legend:
# HDAC3/NCor2 = HDAC3/NCor2 (Homo sapiens (Human), UniProt O15379); assay: HDAC3 inhibition, Fluor de Lys fluorescent enzyme assay; type: biochemical; conditions: 3 hours pre-incubation at room temp; 1.2 nM enzyme; 16 μM Fluor de Lys substrate; duplicate
# In short: (§1)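 Enzyme (HDAC1 6 nM, HDAC3/NCor2 1.2 nM final) pre-incubated with compound 3 h at ~22 °C in Tris pH 8 buffer with 0.01% BSA. Reaction run 1 h with 16 μM Fluor de Lys substrate and stopped with TSA-containing developer. Fluorescence read at Ex 360/Em 460; IC50 from an occupancy equation with Hill coefficient, in duplicate.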
# Recombinant HDAC1 = Recombinant HDAC1 (Homo sapiens (Human), UniProt Q13547); assay: HDAC1 inhibition, Fluor de Lys fluorescent enzyme assay; type: biochemical; conditions: 3 hours pre-incubation at room temp; 6 nM enzyme; 16 μM Fluor de Lys substrate; duplicate
# In short: as §1
# Chain of HDAC3/NCor2 (O15379 whole entry): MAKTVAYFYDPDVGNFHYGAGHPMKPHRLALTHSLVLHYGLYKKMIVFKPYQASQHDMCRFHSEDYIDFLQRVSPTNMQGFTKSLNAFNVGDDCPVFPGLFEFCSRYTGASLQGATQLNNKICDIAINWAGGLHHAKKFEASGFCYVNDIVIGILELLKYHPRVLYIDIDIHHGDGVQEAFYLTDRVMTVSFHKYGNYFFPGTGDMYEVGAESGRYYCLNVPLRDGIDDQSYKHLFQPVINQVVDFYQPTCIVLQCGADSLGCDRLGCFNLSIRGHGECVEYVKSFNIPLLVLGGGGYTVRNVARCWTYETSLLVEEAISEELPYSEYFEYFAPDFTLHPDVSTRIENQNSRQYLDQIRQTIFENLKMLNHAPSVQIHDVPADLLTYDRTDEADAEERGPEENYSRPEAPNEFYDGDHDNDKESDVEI
# Chain of HDAC3/NCor2 (Q9Y618 395-489 partner): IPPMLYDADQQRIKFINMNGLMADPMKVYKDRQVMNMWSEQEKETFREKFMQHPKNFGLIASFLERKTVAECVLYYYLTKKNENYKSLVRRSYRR
# Chain of Recombinant HDAC1 (Q13547 whole entry): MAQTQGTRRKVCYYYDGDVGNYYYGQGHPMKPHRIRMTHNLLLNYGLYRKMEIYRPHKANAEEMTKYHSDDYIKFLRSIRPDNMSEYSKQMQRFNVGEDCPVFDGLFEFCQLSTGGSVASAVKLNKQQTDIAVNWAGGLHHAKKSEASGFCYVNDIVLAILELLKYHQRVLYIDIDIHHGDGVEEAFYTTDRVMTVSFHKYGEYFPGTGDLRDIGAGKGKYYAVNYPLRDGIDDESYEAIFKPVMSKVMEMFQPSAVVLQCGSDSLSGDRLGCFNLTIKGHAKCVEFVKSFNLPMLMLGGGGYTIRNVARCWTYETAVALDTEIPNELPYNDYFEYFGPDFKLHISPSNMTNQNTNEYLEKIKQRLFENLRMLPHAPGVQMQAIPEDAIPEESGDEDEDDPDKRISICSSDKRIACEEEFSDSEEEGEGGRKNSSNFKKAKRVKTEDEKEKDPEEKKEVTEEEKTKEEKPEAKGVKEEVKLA
IC50 (HDAC3/NCor2),IC50 (Recombinant HDAC1),SMILES
500 to 2000 nM,< 100 nM,"COc1ncc(S(=N)(=O)c2ccc(C(=O)Nc3cc(-c4ccc(F)cc4)ccc3N)cc2)cn1 (stereo not drawn) [Compound 218, N-[2-amino-5-(4-fluorophenyl)phenyl]-4-[(2-methoxypyrimidin-5-yl)sulfonimidoyl]benzamide]"
100 to 500 nM,< 100 nM,"Cc1cnc(S(=N)(=O)c2ccc(C(=O)Nc3cc(-c4ccc(F)cc4)ccc3N)cc2)[nH]1 (stereo not drawn) [Compound 228, N-[2-amino-5-(4-fluorophenyl)phenyl]-4-[(5-methyl-1H-imidazol-2-yl)sulfonimidoyl]benzamide]"
500 to 2000 nM,< 100 nM,"CS(=N)(=O)c1ccc(C(=O)Nc2cc(-c3cccs3)ccc2O)cc1 (stereo not drawn) [Compound 123, N-[2-hydroxy-5-(2-thienyl)phenyl]-4-(methylsulfonimidoyl)benzamide]"
500 to 2000 nM,< 100 nM,"C[S@](=N)(=O)c1ccc(C(=O)Nc2cc(-c3cccs3)ccc2N)cc1 (single isomer, unassigned) [Compound 106]"
500 to 2000 nM,< 100 nM,"N#Cc1ccc(S(=N)(=O)c2ccc(C(=O)Nc3cc(-c4ccc(F)cc4)ccc3N)cc2)cn1 (stereo not drawn) [Compound 239, N-[2-amino-5-(4-fluorophenyl)phenyl]-4-[(6-cyano-3-pyridyl)sulfonimidoyl]benzamide]"
500 to 2000 nM,< 100 nM,"CS(=N)(=O)C1(c2ccc(C(=O)Nc3cc(-c4ccc(F)cc4)ccc3N)cc2)CC1 (stereo not drawn) [Compound 251, N-[2-amino-5-(4-fluorophenyl)phenyl]-4-[1-(methylsulfonimidoyl)cyclopropyl]benzamide]"
500 to 2000 nM,< 100 nM,"CS(=N)(=O)c1cc2ccc(C(=O)Nc3cc(-c4ccc(F)cc4)ccc3N)cc2o1 (stereo not drawn) [Compound 187, N-[2-amino-5-(4-fluorophenyl)phenyl]-2-(methylsulfonimidoyl)benzofuran-6-carboxamide]"
500 to 2000 nM,< 100 nM,"N=[S@](=O)(c1ccc(C(=O)Nc2cc(-c3ccc(F)cc3)ccc2N)cc1)c1cncnc1 (single isomer, unassigned) [Compound 183]"
> 2000 nM,< 100 nM,"COc1ncc(S(=N)(=O)c2ccc(C(=O)Nc3cc(-c4ccc(F)cc4)ccc3N)cc2)[nH]1 (stereo not drawn) [Compound 252, N-[2-amino-5-(4-fluorophenyl)phenyl]-4-[(2-methoxy-1H-imidazol-5-yl)sulfonimidoyl]benzamide]"
500 to 2000 nM,< 100 nM,"N=S(=O)(c1ccncc1)c1ccc(C(=O)Nc2cc(-c3ccc(F)cc3)ccc2N)cc1 (stereo not drawn) [Compound 168, N-[2-amino-5-(4-fluorophenyl)phenyl]-4-(4-pyridylsulfonimidoyl)benzamide]"
500 to 2000 nM,< 100 nM,"N=[S@@](=O)(c1ccc(C(=O)Nc2cc(-c3ccc(F)s3)ccc2N)cc1)C1CC1 (single isomer, unassigned) [Compound 133]"
> 2000 nM,< 100 nM,"N#Cc1cncc(S(=N)(=O)c2ccc(C(=O)Nc3cc(-c4ccc(F)cc4)ccc3N)cc2)c1 (stereo not drawn) [Compound 232, N-(4-amino-4′-fluoro-[1,1′-biphenyl]-3-yl)-4-(5-cyanopyridine-3-sulfonimidoyl)benzamide]"
> 2000 nM,< 100 nM,"CS(=N)(=O)c1ccc(C(=O)Nc2cc(-c3cccc(C(N)=O)c3)ccc2N)cc1 (stereo not drawn) [Compound 180, 3-[4-amino-3-[[4-(methylsulfonimidoyl)benzoyl]amino]phenyl]benzamide]"
> 2000 nM,100 to 500 nM,"CS(=N)(=O)c1ccc(C(=O)Nc2cc(-c3ccc(F)c(F)c3)ccc2N)cc1 (stereo not drawn) [Compound 147, N-[2-amino-5-(3,4-difluorophenyl)phenyl]-4-(methylsulfonimidoyl)benzamide]"
> 2000 nM,500 to 2000 nM,"CS(=N)(=O)c1ccc(C(=O)Nc2cc(-c3ccc(C(F)(F)F)cc3)ccc2N)cc1 (stereo not drawn) [Compound 142, N-[2-amino-5-[4-(trifluoromethyl)phenyl]phenyl]-4-(methylsulfonimidoyl)benzamide]"
> 2000 nM,< 100 nM,"Nc1ccc(-c2ccc(Cl)cc2)cc1NC(=O)c1ccc(S2(=O)=NCCC2)cc1 (stereo not drawn) [Compound 203, N-[2-amino-5-(4-chlorophenyl)phenyl]-4-(1-oxo-4,5-dihydro-3H-isothiazol-1-yl)benzamide]"
500 to 2000 nM,< 100 nM,"CCN=S(C)(=O)c1ccc(C(=O)Nc2cc(-c3cccs3)ccc2N)cc1 (stereo not drawn) [Compound 141, N-[2-amino-5-(2-thienyl)phenyl]-4-(N-ethyl-S-methyl-sulfonimidoyl)benzamide]"
> 2000 nM,< 100 nM,"Cc1csc(-c2ccc(N)c(NC(=O)c3ccc(S(C)(=N)=O)cc3)c2)c1 (stereo not drawn) [Compound 135, N-[2-amino-5-(4-methyl-2-thienyl)phenyl]-4-(methylsulfonimidoyl)benzamide]"

IC50 (HDAC3/NCor2),IC50 (Recombinant HDAC1),SMILES
500 to 2000 nM,< 100 nM,"C[S@@](=N)(=O)c1ccc(C(=O)Nc2cc(-c3cccs3)ccc2N)cc1 (single isomer, unassigned) [Compound 105]"
500 to 2000 nM,< 100 nM,"CS(=N)(=O)c1cc2sc(C(=O)Nc3cc(-c4ccc(F)cc4)ccc3N)cc2cn1 (stereo not drawn) [Compound 253, N-[2-amino-5-(4-fluorophenyl)phenyl]-6-(methylsulfonimidoyl)thieno[3,2-c]pyridine-2-carboxamide]"
500 to 2000 nM,< 100 nM,"Cc1ccc(S(=N)(=O)c2ccc(C(=O)Nc3cc(-c4ccc(F)cc4)ccc3N)cc2)nc1 (stereo not drawn) [Compound 231, N-[2-amino-5-(4-fluorophenyl)phenyl]-4-[(5-methyl-2-pyridyl)sulfonimidoyl]benzamide]"
500 to 2000 nM,< 100 nM,"CS(=N)(=O)c1ccc(C(=O)Nc2cc(-c3ccc(Cl)s3)ccc2N)cc1 (stereo not drawn) [Compound 137, N-[2-amino-5-(5-chloro-2-thienyl)phenyl]-4-(methylsulfonimidoyl)benzamide]"
500 to 2000 nM,< 100 nM,"N=S(=O)(c1ccc(C(=O)Nc2cc(-c3cccs3)ccc2N)cc1)c1ccccn1 (stereo not drawn) [Compound 150, N-[2-amino-5-(2-thienyl)phenyl]-4-(2-pyridylsulfonimidoyl)benzamide]"
500 to 2000 nM,< 100 nM,"N=S(=O)(c1ccc(C(=O)Nc2cc(-c3ccc(F)cc3)ccc2N)cc1)c1cnccn1 (stereo not drawn) [Compound 195, N-[2-amino-5-(4-fluorophenyl)phenyl]-4-(pyrazin-2-ylsulfonimidoyl)benzamide]"
500 to 2000 nM,< 100 nM,"C=C(C)c1cncc(S(=N)(=O)c2ccc(C(=O)Nc3cc(-c4ccc(F)cc4)ccc3N)cc2)c1 (stereo not drawn) [Compound 225, N-[2-amino-5-(4-fluorophenyl)phenyl]-4-[(5-isopropenyl-3-pyridyl)sulfonimidoyl]benzamide]"
500 to 2000 nM,< 100 nM,"CS(=N)(=O)c1ccc(C(=O)Nc2cc(-c3ccc(F)cc3)ccc2N)cc1 (stereo not drawn) [Compound 104, N-[2-amino-5-(4-fluorophenyl)phenyl]-4-(methylsulfonimidoyl)benzamide]"
500 to 2000 nM,< 100 nM,"N=S(=O)(c1ccc(C(=O)Nc2cc(-c3ccc(F)s3)ccc2N)cc1)C1CC1 (racemic) [Compound 127, rac-N-[2-amino-5-(5-fluoro-2-thienyl)phenyl]-4-(cyclopropylsulfonimidoyl)benzamide]"
500 to 2000 nM,< 100 nM,"C[S@@](=N)(=O)c1ccc(C(=O)Nc2cc(-c3ccc(F)s3)ccc2N)cc1 [Compound 144, (R)—N-[2-amino-5-(5-fluoro-2-thienyl)phenyl]-4-(methylsulfonimidoyl)benzamide]"
500 to 2000 nM,< 100 nM,N=S(=O)(c1ccc(C(=O)Nc2cc(-c3ccc(F)cc3)ccc2N)cc1)c1ccc(CO)nc1 (stereo not drawn) [Compound 208]
500 to 2000 nM,< 100 nM,"N=S(=O)(c1ccc(C(=O)Nc2cc(-c3ccc(F)cc3)ccc2N)cc1)c1ccccn1 (stereo not drawn) [Compound 166, N-[2-amino-5-(4-fluorophenyl)phenyl]-4-(2-pyridylsulfonimidoyl)benzamide]"
500 to 2000 nM,< 100 nM,"CS(=N)(=O)c1coc2cc(C(=O)Nc3cc(-c4ccc(F)cc4)ccc3N)ccc12 (stereo not drawn) [Compound 258, N-[2-amino-5-(4-fluorophenyl)phenyl]-3-(methylsulfonimidoyl)benzofuran-6-carboxamide]"
500 to 2000 nM,< 100 nM,"CS(=N)(=O)Cc1ccc(C(=O)Nc2cc(-c3cccs3)ccc2N)cc1 (stereo not drawn) [Compound 128, N-[2-amino-5-(2-thienyl)phenyl]-4-[(methylsulfonimidoyl)methyl]benzamide]"
100 to 500 nM,< 100 nM,"CS(=N)(=O)c1ccc2oc(C(=O)Nc3cc(-c4ccc(F)cc4)ccc3N)cc2c1 (stereo not drawn) [Compound 171, N-(4-amino-4′-fluoro-[1,1′-biphenyl]-3-yl)-5-(S-methylsulfonimidoyl)benzofuran-2-carboxamide]"
500 to 2000 nM,< 100 nM,"CS(=N)(=O)c1ccc(C(=O)Nc2cc(-c3cncs3)ccc2N)cc1 (stereo not drawn) [Compound 148, N-(2-amino-5-thiazol-5-yl-phenyl)-4-(methylsulfonimidoyl)benzamide]"
500 to 2000 nM,< 100 nM,"Cc1cncc(S(=N)(=O)c2ccc(C(=O)Nc3cc(-c4ccc(F)cc4)ccc3N)cc2)c1 (stereo not drawn) [Compound 199, N-[2-amino-5-(4-fluorophenyl)phenyl]-4-[(5-methyl-3-pyridyl)sulfonimidoyl]benzamide]"
> 2000 nM,< 100 nM,"N=S(=O)(c1ccc(C(=O)Nc2cc(-c3ccc(F)cc3)ccc2N)cc1)c1ccc(C(F)(F)F)nc1 (stereo not drawn) [Compound 205, N-[2-amino-5-(4-fluorophenyl)phenyl]-4-[[6-(trifluoromethyl)-3-pyridyl]sulfonimidoyl]benzamide]"
